The values below come from patent publication US8343988B2, “Inhibitors of histone deacetylase” (Janssen Pharmaceutica, N.V, priority 2002, dated 2013).

Values after ≈ are worked out from the molar mass of the structure shown. Bounds are passed on as bounds.

In series [1] the test system is A2780 ovarian carcinoma cells. Put plainly: Antiproliferative activity on A2780 cells (MTT). It is filed as cell-based. The note with it: Homo sapiens, 96 h, four days of incubation, read-out: Cellular activity pIC50 (converted). As for the experimental part: Cellular activity of the compounds of formula (I) was determined on A2780 tumour cells using a […] assay for cell toxicity or survival (Mosmann Tim, Journal of Immunological Methods 65: 55-63, 1983)(see example C.2).
All compounds tested were dissolved in DMSO and further dilutions were made in culture medium. Final DMSO concentrations never exceeded 0.1% (v/v) in cell proliferation assays. Controls contained A2780 cells and DMSO without compound and blanks contained DMSO but no cells. MTT was dissolved at 5 mg/ml in PBS. A glycine buffer comprised of 0.1 M glycine and 0.1 M NaCl buffered to pH 10.5 with NaOH (1 N) was prepared (all reagents were from Merck).
The human A2780 ovarian carcinoma cells (a kind gift from Dr. T. C. Hamilton [Fox Chase Cancer Centre, Pennsylvania, USA]) were cultured in RPMI 1640 medium supplemented with 2 mM L-glutamine, 50 μg/ml gentamicin and 10% fetal calf serum. Cells were routinely kept as monolayer cultures at 37° C. in a humidified 5% CO2 atmosphere. Cells were passaged once a week using a trypsin/EDTA solution at a split ratio of 1:40. All media and supplements were obtained from Life Technologies. Cells were free of mycoplasma contamination as determined using the Gen-Probe Mycoplasma Tissue Culture kit (supplier: BioMérieux).
Cells were seeded in NUNC™ 96-well culture plates (Supplier: Life Technologies) and allowed to adhere to the plastic overnight. Densities used for plating were 1500 cells per well in a total volume of 200 μl medium. After cell adhesion to the plates, medium was changed and drugs and/or solvents were added to a final volume of 200 μl. Following four days of incubation, medium was replaced by 200 μl fresh medium and cell density and viability was assessed using an MTT-based assay. To each well, 25 μl MTT solution was added and the cells were further incubated for 2 hours at 37° C. The medium was then carefully aspirated and the blue MTT-formazan product was solubilized by addition of 25 μl glycine buffer followed by 100 μl of DMSO. […] Within an experiment, the results for each experimental condition are the mean of 3 replicate wells. For initial screening purposes, compounds were tested at a single fixed concentration of 10^−6 M. For active compounds, the experiments were repeated to establish full concentration-response curves. For each experiment, controls (containing no drug) and a blank incubation (containing no cells or drugs) were run in parallel. The blank value was subtracted from all control and sample values. For each sample, the mean value for cell growth (in absorbance units) was expressed as a percentage of the mean value for cell growth of the control. […] Herein the effects of test compounds are expressed as pIC50 (the negative log value of the IC50-value).

Series [2] is described as follows: Kinetic solubility in aqueous media. It is filed as physicochemical. The note with it: aqueous buffer, kinetic from dmso stock; phosphate citrate buffer pH 7.4, turbidity by nephelometer; read-out: Solubility Score. As for the experimental part: Kinetic solubility in aqueous media measures the ability of a compound to stay in aqueous solution upon dilution (see example C.3).
DMSO-stock solutions are diluted with a single aqueous buffer solvent in 3 consecutive steps. For every dilution turbidity is measured with a nephelometer.
In the first dilution step, 10 μl of a concentrated stock-solution of the active compound, solubilized in DMSO (5 mM), was added to 100 μl phosphate citrate buffer pH 7.4 and mixed. In the second dilution step, an aliquot (20 μl) of the first dilution step was further dispensed in 100 μl phosphate citrate buffer pH 7.4 and mixed. Finally, in the third dilution step, a sample (20 μl) of the second dilution step was further diluted in 100 μl phosphate citrate buffer pH 7.4 and mixed. All dilutions were performed in 96-well plates. Immediately after the last dilution step the turbidity of the three consecutive dilution steps were measured with a nephelometer. Dilution was done in triplicate for each compound to exclude occasional errors. Based on the turbidity measurements a ranking is performed into 3 classes. Compounds with high solubility obtained a score of 3 and for this compounds the first dilution is clear. Compounds with medium solubility obtained a score of 2. For these compounds the first dilution is unclear and the second dilution is clear. […] The solubility of 6 compounds was measured.

Series [3] has as its target histone deacetylase (HeLa nuclear extracts). Put plainly: In vitro assay for inhibition of histone deacetylase. It is filed as biochemical. The conditions noted are these: [3H]acetylated histone H4 peptide substrate, 30 min. The method, then: The in vitro assay for inhibition of histone deacetylase (see example C.1) measures the inhibition of HDAC enzymatic activity obtained with the compounds of formula (I).
HeLa nuclear extracts (supplier: Biomol) were incubated at 60 μg/ml with 2×10^−8 M of radiolabeled peptide substrate. As a substrate for measuring HDAC activity a synthetic peptide, i.e. the amino acids 14-21 of histone H4, was used. The substrate is biotinylated at the NH2-terminal part with a 6-aminohexanoic acid spacer, and is protected at the COOH-terminal part by an amide group and specifically [^3H]acetylated at lysine 16. The substrate, biotin-(6-aminohexanoic)Gly-Ala-([^3H]-acetyl-Lys-Arg-His-Arg-Lys-Val-NH2), was added in a buffer containing 25 mM Hepes, 1 M sucrose, 0.1 mg/ml BSA and 0.01% Triton X-100 at pH 7.4. After 30 min the deacetylation reaction was terminated by the addition of HCl and acetic acid. (final concentration 0.035 mM and 3.8 mM respectively). After stopping the reaction, the free ^3H-acetate was extracted with ethylacetate. After mixing and centrifugation, the radioactivity in an aliquot of the upper (organic) phase was counted in a β-counter.
For each experiment, controls (containing HeLa nuclear extract and DMSO without compound), a blank incubation (containing DMSO but no HeLa nuclear extract or compound) and samples (containing compound dissolved in DMSO and HeLa nuclear extract) were run in parallel. […] The control sample represented 100% of substrate deactylation. For each sample the radioactivity was expressed as a percentage of the mean value of the controls. […] Herein the effects of test compounds are expressed as pIC50 (the negative log value of the IC50-value).

Regarding `CCC(C)n1nc(C)n(-c2ccc(N3CCCN(c4ccc(C(=O)NO)cc4)CC3)cc2)c1=O` (stereo not drawn) (hydrate or solvate) [Co. No. 1], the melting point (in general, the temperature, or range, at which the solid turns liquid) fell in the range of 182 to 184 °C. Same read-out and setting: to `O=C(NO)c1cnc(N2CCN(Cc3ccc(-c4ccc(CN5CCOCC5)cc4)o3)CC2)nc1` (hydrate or solvate) [Co. No. 9] belongs 140 °C. For the molecule `CCC(C)n1nc(C)n(-c2ccc(N3CCCN(c4ccc(C(=O)NO)cc4)CC3)cc2)c1=O` (stereo not drawn) [Co. No. 1], the IC50 in series [1] was 15000 nM. In addition, the solubility (as a rule, the dissolved amount per volume that the medium holds) in series [2] was more than 454 µM. Besides, the “Enzyme activity pIC50” value in series [3] stood at 5.121. In turn, `O=C(NO)c1ccc(N2CCN(Cc3ccccc3)CC2)cc1` [Co. No. 2] yielded a melting point of 196 °C. In series [1], the IC50 was 9120 nM. The solubility in series [2] is more than 454 µM. Besides, the “Enzyme activity pIC50” value in series [3] turned out to be 6.377. Turning to `O=C(NO)c1cnc(N2CCN(C3CCN(S(=O)(=O)c4ccc5ccccc5c4)CC3)CC2)nc1` [Co. No. 3], the melting point worked out at 210 °C. The IC50 in series [1] was 964 nM. For the same molecule, the solubility in series [2] was less than 75.8 µM. Also, the “Enzyme activity pIC50” value in series [3] is 7.28. For `O=C(NO)c1cnc(N2CCC(N3CCN(S(=O)(=O)c4ccc5ccccc5c4)CC3)CC2)nc1` [Co. No. 4], in that order: 230 °C, 658 nM, more than 454 µM and 7.306. For `O=C(NO)c1cnc(N2CCN(Cc3ccc(-c4ccc(CO)cc4)o3)CC2)nc1` [Co. No. 5], the melting point turned out to be 219 °C. In series [1], the IC50 is 153 nM. In addition, in series [2], the solubility is more than 454 µM. Moreover, the “Enzyme activity pIC50” value in series [3] turned out to be 8.035.

The molecule `O=C(NO)c1cnc(N2CCN(Cc3ccc4ccccc4c3)CC2)nc1` [Co. No. 6] showed a melting point of more than 260 °C. Besides, the IC50 in series [1] is 59.3 nM. In addition, the solubility in series [2] was more than 454 µM. In series [3], the “Enzyme activity pIC50” value was determined as 8.148.

Regarding `COc1cc2c(=O)n(CC3CCN(c4ncc(C(=O)NO)cn4)CC3)c(C)nc2c(OC)c1OC` [Co. No. 8], the IC50 in series [1] is 372 nM. Further, in series [3], the “Enzyme activity pIC50” value is 7.365. With `O=C(NO)c1cnc(N2CCN(Cc3ccc(-c4ccc(CN5CCOCC5)cc4)o3)CC2)nc1` [Co. No. 9], the IC50 in series [1] was 97.9 nM. For the same molecule, the solubility in series [2] is more than 454 µM. In addition, in series [3], the “Enzyme activity pIC50” value was 7.889. For the molecule `O=C(NO)c1cnc(N2CCC(Cn3c(-c4ccccc4)nc4ccccc4c3=O)CC2)nc1` [Co. No. 10], the IC50 in series [1] is 658 nM. Besides, in series [3], the “Enzyme activity pIC50” value was found to be 7.427.

With `O=C(NO)c1ccc(N2CCN(c3cccc(Cl)c3)CC2)c([N+](=O)[O-])c1` [compound 11], the “Enzyme activity pIC50” value in series [3] is less than 5. Same read-out and setting: as for `O=C(NO)c1ccc(N2CCN(CCCC(c3ccc(F)cc3)c3ccc(F)cc3)CC2)c([N+](=O)[O-])c1` [compound 12], the figure is more than 5. The same measure, in the same setting: as for `O=C(NO)c1cc([N+](=O)[O-])ccc1N1CCN(c2ccccc2Cl)CC1` [compound 13], the figure is less than 5; as for `O=C(NO)c1cc([N+](=O)[O-])ccc1N1CCC(Cc2ccccc2)CC1` [compound 14], less than 5; as for `COc1ccccc1N1CCN(c2ccc(C(=O)NO)cc2[N+](=O)[O-])CC1` [compound 15], more than 5. Same read-out and setting: as for `O=C(NO)c1ccc(N2CCN(C3CCCCC3)CC2)c([N+](=O)[O-])c1` [compound 16], the figure is 5.698. As to `O=C(NO)c1ccc(N2CCN(c3ccc(Cl)c(Cl)c3)CC2)c([N+](=O)[O-])c1` [compound 17], in series [3], the “Enzyme activity pIC50” value is more than 5. For `O=C(NO)c1ccc(N2CCN(c3ccccn3)CC2)c([N+](=O)[O-])c1` [compound 18], in series [3], the “Enzyme activity pIC50” value is recorded as more than 5. Same read-out and setting: as for `O=C(NO)c1ccc(N2CCN(c3cccc(C(F)(F)F)c3)CC2)c([N+](=O)[O-])c1` [compound 19], the figure is more than 5; as for `O=C(NO)c1ccc(N2CCN(c3ccc(Cl)cc3)CC2)c([N+](=O)[O-])c1` [compound 20], less than 5. Consider `O=C(NO)c1ccc(N2CCN(c3ncccn3)CC2)c([N+](=O)[O-])c1` [compound 21], for which the “Enzyme activity pIC50” value in series [3] turned out to be 5. As to `O=C(NO)c1ccc(N2CCN(Cc3ccc4c(c3)OCO4)CC2)c([N+](=O)[O-])c1` [compound 22], in series [3], the “Enzyme activity pIC50” value was more than 5. With `O=C(NO)c1ccc(N2CCN(c3ccccc3F)CC2)c([N+](=O)[O-])c1` [compound 23], the “Enzyme activity pIC50” value in series [3] is more than 5. As to `O=C(NO)c1ccc(N2CCN(Cc3ccccc3)CC2)c([N+](=O)[O-])c1` [compound 24], the “Enzyme activity pIC50” value in series [3] is reported as less than 5.

On to `O=C(NO)c1ccc(N2CCN(c3ccc(C(F)(F)F)cn3)CC2)c([N+](=O)[O-])c1` [compound 25], for which the “Enzyme activity pIC50” value in series [3] is reported as 5.

With `O=C(NO)c1ccc(N2CCN(c3ccc(C(F)(F)F)cc3)CC2)c([N+](=O)[O-])c1` [compound 26], the “Enzyme activity pIC50” value in series [3] is given as more than 5. On the same count and under the same terms, as for `O=C(NO)c1ccc(N2CCC(Cc3ccccc3)CC2)c([N+](=O)[O-])c1` [compound 27], the figure is less than 5; as for `O=C(NO)c1ccc(N2CCC(n3c(=O)[nH]c4ccccc43)CC2)c([N+](=O)[O-])c1` [compound 28], more than 5.

As to `O=C(NO)c1cccc(CN2CCN(c3cccc4ccccc34)CC2)c1` [compound 49], the solubility in series [2] lay in the range of 75.8 to 454 µM (≈ 27.4 to 164 µg/mL). Also, the “Enzyme activity pIC50” value in series [3] is reported as less than 5.

`O=C(NO)c1ccc(CN2CCN(c3cccc4ccccc34)CC2)cc1` [compound 50]: the solubility in series [2] lay within 75.8 to 454 µM (≈ 27.4 to 164 µg/mL). Further, the “Enzyme activity pIC50” value in series [3] is 5.206. On to `Cc1nc2ccccc2c(=O)n1CC1CCN(c2ncc(C(=O)NO)cn2)CC1` [compound 51], for which the IC50 in series [1] was 1180 nM. For the same molecule, the “Enzyme activity pIC50” value in series [3] is reported as 7.561. For `Cc1ccc2nc(-c3cc4ccccc4o3)n(CC3CCN(c4ncc(C(=O)NO)cn4)CC3)c(=O)c2c1` [compound 52] the same measures were 1170 nM and 7.235. Consider `O=C(NO)c1cnc(N2CCC(Cn3c(-c4cccnc4Oc4ccccc4)nc4cccc(F)c4c3=O)CC2)nc1` [compound 53], for which the “Enzyme activity pIC50” value in series [3] was 7.295. Same read-out and setting: as for `O=C(NO)c1cnc(N2CCC(Cn3c(C(c4ccccc4)C4CCCC4)nc4cccc(F)c4c3=O)CC2)nc1` (stereo not drawn) [compound 54], the figure is 6.176.
